{"source": "the supplement of paper PMC10307832", "assay_in_all_cases": "relative viability (nuclei count vs DMSO), 5 days (fraction); higher = more cells survive", "key": {"ChaGo-K-1": {"test_system": "ChaGo-K-1", "summary_of_the_method": "(§1)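 Lung cancer cell lines, seeded in 1536-well plates, were treated the following day by pin tool with a single drug or with five library-drug doses (not always all listed) in √10 steps on top of a fixed anchor-drug dose. Cells were fixed and nuclei stained in one step after 5 days, and nuclei were counted. Relative viability is the nuclei count for treated wells divided by that for vehicle wells, reported as medians of duplicate plates.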"}, "RERF-LC-KJ": {"test_system": "RERF-LC-KJ", "summary_of_the_method": "as §1"}, "NCI-H2087": {"test_system": "NCI-H2087", "summary_of_the_method": "as §1"}, "BEN": {"test_system": "BEN", "summary_of_the_method": "as §1"}, "NCI-H1792": {"test_system": "NCI-H1792", "summary_of_the_method": "as §1"}, "LU99A": {"test_system": "LU99A", "summary_of_the_method": "as §1"}, "EMC-BAC-2": {"test_system": "EMC-BAC-2", "summary_of_the_method": "as §1"}, "EKVX": {"test_system": "EKVX", "summary_of_the_method": "as §1"}, "LK-2": {"test_system": "LK-2", "summary_of_the_method": "as §1"}, "NCI-H1734": {"test_system": "NCI-H1734", "summary_of_the_method": "as §1"}, "LOU-NH91": {"test_system": "LOU-NH91", "summary_of_the_method": "as §1"}}}
{"smiles": "O=C(O)CCCCC(CCSCc1ccccc1)SCc1ccccc1", "note": "(centres undefined) [CPI-613] + Nc1nc2[nH]cc(CCc3ccc(C(=O)N[C@@H](CCC(=O)O)C(=O)O)cc3)c2c(=O)[nH]1 [Pemetrexed] (partner 0.2 µM)", "values": [{"measurement": "relative viability", "setting": "ChaGo-K-1; first compound 5 µM", "result": 0.269}, {"measurement": "relative viability", "setting": "ChaGo-K-1; first compound 15.81 µM", "result": 0.261}, {"measurement": "relative viability", "setting": "ChaGo-K-1; first compound 50 µM", "result": 0.264}, {"measurement": "relative viability", "setting": "ChaGo-K-1; first compound 158.11 µM", "result": 0.248}, {"measurement": "relative viability", "setting": "ChaGo-K-1; first compound 500 µM", "result": 0.187}, {"measurement": "relative viability", "setting": "RERF-LC-KJ; first compound 5 µM", "result": 0.476}, {"measurement": "relative viability", "setting": "RERF-LC-KJ; first compound 15.81 µM", "result": 0.47}, {"measurement": "relative viability", "setting": "RERF-LC-KJ; first compound 50 µM", "result": 0.461}, {"measurement": "relative viability", "setting": "RERF-LC-KJ; first compound 158.11 µM", "result": 0.341}, {"measurement": "relative viability", "setting": "RERF-LC-KJ; first compound 500 µM", "result": 0.312}, {"measurement": "relative viability", "setting": "NCI-H2087; first compound 5 µM", "result": 0.642}, {"measurement": "relative viability", "setting": "NCI-H2087; first compound 15.81 µM", "result": 0.662}, {"measurement": "relative viability", "setting": "NCI-H2087; first compound 50 µM", "result": 0.689}, {"measurement": "relative viability", "setting": "NCI-H2087; first compound 158.11 µM", "result": 0.574}, {"measurement": "relative viability", "setting": "NCI-H2087; first compound 500 µM", "result": 0.007}, {"measurement": "relative viability", "setting": "BEN; first compound 5 µM", "result": 0.809}, {"measurement": "relative viability", "setting": "BEN; first compound 15.81 µM", "result": 0.571}, {"measurement": "relative viability", "setting": "BEN; first compound 50 µM", "result": 0.763}, {"measurement": "relative viability", "setting": "BEN; first compound 158.11 µM", "result": 0.76}, {"measurement": "relative viability", "setting": "BEN; first compound 500 µM", "result": 0.703}, {"measurement": "relative viability", "setting": "NCI-H1792; first compound 5 µM", "result": 0.744}, {"measurement": "relative viability", "setting": "NCI-H1792; first compound 15.81 µM", "result": 0.63}, {"measurement": "relative viability", "setting": "NCI-H1792; first compound 50 µM", "result": 0.636}, {"measurement": "relative viability", "setting": "NCI-H1792; first compound 158.11 µM", "result": 0.109}, {"measurement": "relative viability", "setting": "NCI-H1792; first compound 500 µM", "result": 0.0742}, {"measurement": "relative viability", "setting": "LU99A; first compound 5 µM", "result": 0.179}, {"measurement": "relative viability", "setting": "LU99A; first compound 15.81 µM", "result": 0.199}, {"measurement": "relative viability", "setting": "LU99A; first compound 50 µM", "result": 0.179}, {"measurement": "relative viability", "setting": "LU99A; first compound 158.11 µM", "result": 0.186}, {"measurement": "relative viability", "setting": "LU99A; first compound 500 µM", "result": 0.183}, {"measurement": "relative viability", "setting": "EMC-BAC-2; first compound 5 µM", "result": 0.435}, {"measurement": "relative viability", "setting": "EMC-BAC-2; first compound 15.81 µM", "result": 0.409}, {"measurement": "relative viability", "setting": "EMC-BAC-2; first compound 50 µM", "result": 0.456}, {"measurement": "relative viability", "setting": "EMC-BAC-2; first compound 158.11 µM", "result": 0.461}, {"measurement": "relative viability", "setting": "EMC-BAC-2; first compound 500 µM", "result": 0.349}, {"measurement": "relative viability", "setting": "EKVX; first compound 5 µM", "result": 0.373}, {"measurement": "relative viability", "setting": "EKVX; first compound 15.81 µM", "result": 0.355}, {"measurement": "relative viability", "setting": "EKVX; first compound 50 µM", "result": 0.306}, {"measurement": "relative viability", "setting": "EKVX; first compound 500 µM", "result": 0.388}, {"measurement": "relative viability", "setting": "LK-2; first compound 5 µM", "result": 0.337}, {"measurement": "relative viability", "setting": "LK-2; first compound 15.81 µM", "result": 0.225}, {"measurement": "relative viability", "setting": "LK-2; first compound 50 µM", "result": 0.324}, {"measurement": "relative viability", "setting": "LK-2; first compound 158.11 µM", "result": 0.265}, {"measurement": "relative viability", "setting": "LK-2; first compound 500 µM", "result": 0.241}, {"measurement": "relative viability", "setting": "NCI-H1734; first compound 5 µM", "result": 0.387}, {"measurement": "relative viability", "setting": "NCI-H1734; first compound 15.81 µM", "result": 0.418}, {"measurement": "relative viability", "setting": "NCI-H1734; first compound 50 µM", "result": 0.411}, {"measurement": "relative viability", "setting": "NCI-H1734; first compound 158.11 µM", "result": 0.38}, {"measurement": "relative viability", "setting": "NCI-H1734; first compound 500 µM", "result": 0.131}, {"measurement": "relative viability", "setting": "LOU-NH91; first compound 5 µM", "result": 0.389}, {"measurement": "relative viability", "setting": "LOU-NH91; first compound 15.81 µM", "result": 0.332}, {"measurement": "relative viability", "setting": "LOU-NH91; first compound 50 µM", "result": 0.367}, {"measurement": "relative viability", "setting": "LOU-NH91; first compound 158.11 µM", "result": 0.399}, {"measurement": "relative viability", "setting": "LOU-NH91; first compound 500 µM", "result": 0.233}]}
